These results are taken from patent US12365687B2 (Hoffmann-La Roche Inc., priority 2021, dated 2025).

The target in test [1] is α2β2γ1 GABAA receptor subtype (Homo sapiens (Human), UniProt P47869+Q8N1C3). Put plainly: Two-electrode voltage clamp electrophysiology in Xenopus oocytes expressing GABAA receptors (modulation of GABA EC20 current). In kind it is cell-based. Particulars: for Efficacy (GABA)%: % modulation of GABA EC20 = 100*(Fold increase-1), α2β2γ1 oocytes, compound at approx. 30-fold Ki; for Fold increase h-GABA-A α2β2γ1 oocyte @ 30-fold Ki: Xenopus oocytes expressing α2β2γ1, compound at approx. 30-fold its Ki α2β2γ1, GABA EC20 current. The method in brief: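 Each concentration was tested on ≥3 oocytes held at −80 mV at room temperature, recorded 3-5 days post-injection. A control and a test response to EC20 GABA (1.5 min each) were superimposed and their point-by-point ratio taken. Peak ratio reported as % modulation of GABA EC20 = 100×(fold increase−1).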
On the technique in general: In two-electrode clamp one electrode senses voltage and the other passes current.

Test [2] concerns the target human GABAA α1β3γ2 receptor (Homo sapiens (Human), UniProt P14867+P18507). Put plainly: Radioligand binding assay for γ2-containing GABAA subtypes, [3H]Flumazenil competition (α1β3γ2). Particulars: for γ2/γ1 Selectivity Ratio: Ki α1β3γ2 (nM)/Ki α2β2γ1 (nM); for LogSel: Log[Ki α1β3γ2 (nM)/Ki α2β2γ1 (nM)].
Test [3] deals with human GABAA α5β2γ1 receptor (Homo sapiens (Human), UniProt P31644+Q8N1C3). Put plainly: Radioligand binding assay for γ1-containing GABAA subtypes, [3H]RO7239181 competition (α5β2γ1).
The target in test [4] is human GABAA α2β2γ1 receptor (Homo sapiens (Human), UniProt P47869+Q8N1C3). Put plainly: Radioligand binding assay for γ1-containing GABAA subtypes, [3H]RO7239181 competition (α2β2γ1).
Setting [5] is: Ki h-GABAA α2β2γ1, [3H]RO7239181 competition binding, human GABAA α2β2γ1.
The mark [6] stands for this setting: Ki h-GABAA α2β2γ1, displacement of [3H]RO7239181, membranes of HEK293F cells expressing human receptors, means of two determinations.

Consider `C[C@@H]1N=C(c2ncccc2F)c2c(ccc(Cl)c2Cl)-n2nc(C(=O)N3CC(O)C3)nc21` [Example 44, [(4S)-7,8-dichloro-6-(3-fluoro-2-pyridyl)-4-methyl-4H-[1,2,4]triazolo[1,5-a][1,4]benzodiazepin-2-yl]-(3-hydroxyazetidin-1-yl)methanone], for which, in test [1], the “Efficacy (GABA)%” value is 133%. In test [1], the “Fold increase h-GABA-A α2β2γ1 oocyte @ 30-fold Ki” value was found to be 2.33. The Ki in test [2] worked out at 6620 nM; in test [3] it was 9.52 nM; in test [4] (setting [5]), 25.9 nM; in test [4] (setting [6]), 25.9 nM. In test [2], the “γ2/γ1 Selectivity Ratio” value amounted to 255.1. In addition, the LogSel in test [2] turned out to be 2.41.
On to `CO[C@H]1CCN(C(=O)c2nc3n(n2)-c2ccc(Cl)c(Cl)c2C(c2c(F)cccc2F)=N[C@H]3C)C1` [Example 45, [(4S)-7,8-dichloro-6-(2,6-difluorophenyl)-4-methyl-4H-[1,2,4]triazolo[1,5-a][1,4]benzodiazepin-2-yl]-[(3S)-3-methoxypyrrolidin-1-yl]methanone], for which, in test [1], the “Efficacy (GABA)%” value came out at 41% and the “Fold increase h-GABA-A α2β2γ1 oocyte @ 30-fold Ki” value was found to be 1.41. In test [2], the Ki amounted to 1350 nM, the “γ2/γ1 Selectivity Ratio” value is given as 250.3 and the LogSel was 2.40. Affinity in test [3] was put at a Ki of 2.2 nM. In test [4] (setting [5]), this molecule gave an inhibition constant Ki of 5.4 nM. In test [4] (setting [6]), the Ki is 5.39 nM.
In the case of `CO[C@@H]1CCN(C(=O)c2nc3n(n2)-c2ccc(Cl)c(Cl)c2C(c2c(F)cccc2F)=N[C@H]3C)C1` [Example 46, [(4S)-7,8-dichloro-6-(2,6-difluorophenyl)-4-methyl-4H-[1,2,4]triazolo[1,5-a][1,4]benzodiazepin-2-yl]-[(3R)-3-methoxypyrrolidin-1-yl]methanone], in test [1], the “Efficacy (GABA)%” value stood at 73% and the “Fold increase h-GABA-A α2β2γ1 oocyte @ 30-fold Ki” value stood at 1.73. In addition, in test [2], the inhibitory constant (Ki) came to 867 nM, the “γ2/γ1 Selectivity Ratio” value amounted to 146.6 and the LogSel is 2.17. In test [3], this molecule returned a Ki of 2.14 nM. This molecule gave a Ki in test [4] (setting [5]) of 5.9 nM. Also, in test [4] (setting [6]), the affinity, expressed as Ki, was 5.91 nM.
Turning to `C[C@@H]1N=C(c2c(F)cccc2F)c2c(ccc(Cl)c2Cl)-n2nc(C(=O)N3CC[C@@H](O)C3)nc21` [Example 47, [(4S)-7,8-dichloro-6-(2,6-difluorophenyl)-4-methyl-4H-[1,2,4]triazolo[1,5-a][1,4]benzodiazepin-2-yl]-[(3R)-3-hydroxypyrrolidin-1-yl]methanone], in test [1], the “Efficacy (GABA)%” value was determined as 74% and the “Fold increase h-GABA-A α2β2γ1 oocyte @ 30-fold Ki” value is given as 1.74. For the same molecule, in test [2], the inhibitory constant (Ki) turned out to be 1010 nM, the “γ2/γ1 Selectivity Ratio” value worked out at 294.7 and the LogSel is 2.47. Besides, the affinity in test [3] corresponds to a Ki of 1.44 nM. Moreover, the inhibitory constant (Ki) in test [4] (setting [5]) was determined as 3.4 nM. The Ki in test [4] (setting [6]) is 3.43 nM.
As for `C[C@@H]1N=C(c2ncccc2F)c2c(ccc(Br)c2Cl)-n2nc(C(=O)N3CCC3)nc21` [Example 48, azetidin-1-yl-[(4S)-8-bromo-7-chloro-6-(3-fluoro-2-pyridyl)-4-methyl-4H-[1,2,4]triazolo[1,5-a][1,4]benzodiazepin-2-yl]methanone], in test [1], the “Efficacy (GABA)%” value turned out to be 94% and the “Fold increase h-GABA-A α2β2γ1 oocyte @ 30-fold Ki” value was 1.94. Moreover, in test [2], the Ki was found to be 1310 nM, the “γ2/γ1 Selectivity Ratio” value was determined as 70.2 and the LogSel is 1.85. The same molecule registered a Ki in test [3] of 3.22 nM. Besides, the affinity in test [4] (setting [5]), expressed as Ki, was 18.6 nM. For the same molecule, the Ki in test [4] (setting [6]) amounted to 18.6 nM.
Consider `C[C@@H]1N=C(c2c(F)cccc2F)c2c(ccc(Cl)c2Cl)-n2nc(C3CC3)nc21` [Example 49, (4S)-7,8-dichloro-2-cyclopropyl-6-(2,6-difluorophenyl)-4-methyl-4H-[1,2,4]triazolo[1,5-a][1,4]benzodiazepine], for which, in test [1], the “Efficacy (GABA)%” value is recorded as 75% and the “Fold increase h-GABA-A α2β2γ1 oocyte @ 30-fold Ki” value is 1.75. In addition, in test [2], the Ki stood at 619 nM, the “γ2/γ1 Selectivity Ratio” value is 39.5 and the LogSel stood at 1.60. Affinity in test [3] was put at a Ki of 1.41 nM. In addition, the inhibition constant (Ki) in test [4] (setting [5]) is 15.7 nM. In test [4] (setting [6]), this molecule returned an inhibition constant Ki of 15.7 nM.
For `C[C@@H]1N=C(c2c(F)cccc2F)c2c(ccc(Cl)c2Cl)-n2nc(N3CCCC3=O)nc21` [Example 50, 1-[(4S)-7,8-dichloro-6-(2,6-difluorophenyl)-4-methyl-4H-[1,2,4]triazolo[1,5-a][1,4]benzodiazepin-2-yl]pyrrolidin-2-one], in test [1], the “Efficacy (GABA)%” value came out at 60%. Also, in test [1], the “Fold increase h-GABA-A α2β2γ1 oocyte @ 30-fold Ki” value is given as 1.60. The Ki in test [2] was 376 nM; in test [3], 0.89 nM; in test [4] (setting [5]), 4.5 nM; in test [4] (setting [6]), 4.5 nM. Also, the “γ2/γ1 Selectivity Ratio” value in test [2] was 83.5. In test [2], this molecule yielded a LogSel of 1.92.
Consider `C[C@@H]1N=C(c2c(F)cccc2F)c2c(ccc(Cl)c2Cl)-n2nc(N3CCS(=O)(=O)CC3)nc21` [Example 52, 4-[(4S)-7,8-dichloro-6-(2,6-difluorophenyl)-4-methyl-4H-[1,2,4]triazolo[1,5-a][1,4]benzodiazepin-2-yl]-1,4-thiazinane 1,1-dioxide], for which, in test [1], the “Efficacy (GABA)%” value is 41% and the “Fold increase h-GABA-A α2β2γ1 oocyte @ 30-fold Ki” value is listed as 1.41. In test [2], the Ki came to 578 nM, the “γ2/γ1 Selectivity Ratio” value is listed as 46.6 and the LogSel is 1.67. For the same molecule, the inhibition constant (Ki) in test [3] was determined as 1.26 nM. The molecule also yielded a Ki in test [4] (setting [5]) of 12.4 nM. In addition, the Ki in test [4] (setting [6]) came out at 12.4 nM.
For the molecule `C[C@@H]1N=C(c2c(F)cccc2F)c2c(ccc(Cl)c2Cl)-n2nc(C#N)nc21` [Example 53, (4S)-7,8-dichloro-6-(2,6-difluorophenyl)-4-methyl-4H-[1,2,4]triazolo[1,5-a][1,4]benzodiazepine-2-carbonitrile], in test [1], the “Efficacy (GABA)%” value came out at 73% and the “Fold increase h-GABA-A α2β2γ1 oocyte @ 30-fold Ki” value came to 1.73. In addition, in test [2], the Ki is 2550 nM, the “γ2/γ1 Selectivity Ratio” value is reported as 41.5 and the LogSel is 1.62. Also, the affinity in test [3] corresponds to a Ki of 1.65 nM. This molecule also gave a Ki in test [4] (setting [5]) of 61.4 nM. Further, affinity in test [4] (setting [6]) was put at a Ki of 61.4 nM.
`C[C@@H]1N=C(c2c(F)cccc2F)c2c(ccc(Cl)c2Cl)-n2nc(C(=O)NC3COC3)nc21` [Example 55, (4S)-7,8-dichloro-6-(2,6-difluorophenyl)-4-methyl-N-(oxetan-3-yl)-4H-[1,2,4]triazolo[1,5-a][1,4]benzodiazepine-2-carboxamide]: the “Efficacy (GABA)%” value in test [1] is 58%. Also, in test [1], the “Fold increase h-GABA-A α2β2γ1 oocyte @ 30-fold Ki” value is 1.58. The Ki in test [2] came out at 555 nM; in test [3], 1.15 nM; in test [4] (setting [5]), 5.4 nM; in test [4] (setting [6]) it was 5.4 nM. For the same molecule, the “γ2/γ1 Selectivity Ratio” value in test [2] was 102.8. The molecule also yielded a LogSel in test [2] of 2.01.
With `C[C@@H]1N=C(c2c(F)cccc2F)c2c(ccc(Cl)c2Cl)-n2nc(C(=O)NCC#N)nc21` [Example 56, (4S)-7,8-dichloro-N-(cyanomethyl)-6-(2,6-difluorophenyl)-4-methyl-4H-[1,2,4]triazolo[1,5-a][1,4]benzodiazepine-2-carboxamide], in test [1], the “Efficacy (GABA)%” value is 72% and the “Fold increase h-GABA-A α2β2γ1 oocyte @ 30-fold Ki” value is given as 1.72. For the same molecule, in test [2], the inhibition constant (Ki) was determined as 432 nM, the “γ2/γ1 Selectivity Ratio” value is recorded as 93.4 and the LogSel is reported as 1.97. Further, affinity in test [3] was put at a Ki of 0.85 nM. In test [4] (setting [5]), the affinity, expressed as Ki, was 4.6 nM. In test [4] (setting [6]), this molecule had an inhibition constant (Ki) of 4.63 nM.
Take `C[C@@H]1N=C(c2c(F)cccc2F)c2c(ccc(Cl)c2Cl)-n2nc(NC(=O)N3CC(F)C3)nc21` [Example 57, 3-fluoro-N-[(4S)-7,8-dichloro-6-(2,6-difluorophenyl)-4-methyl-4H-[1,2,4]triazolo[1,5-a][1,4]benzodiazepin-2-yl]azetidine-1-carboxamide]: in test [1], the “Efficacy (GABA)%” value worked out at 76% and the “Fold increase h-GABA-A α2β2γ1 oocyte @ 30-fold Ki” value was found to be 1.76. In addition, in test [2], the affinity corresponds to a Ki of 822 nM, the “γ2/γ1 Selectivity Ratio” value stood at 46.2 and the LogSel was found to be 1.67. In test [3], the inhibitory constant (Ki) was 1.84 nM. Also, the inhibition constant Ki in test [4] (setting [5]) amounted to 17.8 nM. The same molecule yielded an inhibitory constant (Ki) in test [4] (setting [6]) of 17.8 nM.
In the case of `C[C@@H]1N=C(c2c(F)cccc2F)c2c(ccc(Cl)c2Cl)-n2nc(C(=O)NCC(F)F)nc21` [Example 59, (4S)-7,8-dichloro-N-(2,2-difluoroethyl)-6-(2,6-difluorophenyl)-4-methyl-4H-[1,2,4]triazolo[1,5-a][1,4]benzodiazepine-2-carboxamide], in test [1], the “Efficacy (GABA)%” value is 74% and the “Fold increase h-GABA-A α2β2γ1 oocyte @ 30-fold Ki” value stood at 1.74. Also, in test [2], the Ki came to 640 nM, the “γ2/γ1 Selectivity Ratio” value turned out to be 90.9 and the LogSel stood at 1.96. In test [3], this molecule displayed an inhibition constant Ki of 1.26 nM. Besides, the inhibitory constant (Ki) in test [4] (setting [5]) amounted to 7 nM. This molecule registered a Ki in test [4] (setting [6]) of 7 nM.
As to `COC1CN(C(=O)Nc2nc3n(n2)-c2ccc(Cl)c(Cl)c2C(c2c(F)cccc2F)=N[C@H]3C)C1` [Example 60, 3-methoxy-N-[(4S)-7,8-dichloro-6-(2,6-difluorophenyl)-4-methyl-4H-[1,2,4]triazolo[1,5-a][1,4]benzodiazepin-2-yl]azetidine-1-carboxamide], in test [1], the “Efficacy (GABA)%” value is 107% and the “Fold increase h-GABA-A α2β2γ1 oocyte @ 30-fold Ki” value was 2.07. Moreover, in test [2], the affinity corresponds to a Ki of 602 nM, the “γ2/γ1 Selectivity Ratio” value came to 49.1 and the LogSel is given as 1.69. Besides, the inhibitory constant (Ki) in test [3] is 1.49 nM. In test [4] (setting [5]), this molecule gave a Ki of 12.3 nM. The same molecule registered a Ki in test [4] (setting [6]) of 12.3 nM.

A word on the Ki: it is a measure of affinity in units of concentration, obtained from inhibition or displacement. A lower Ki goes with higher affinity.
